# Source: patent publication US8569292B2, “Cyclic inhibitors of 11β-hydroxysteroid dehydrogenase 1” (Vitae Pharmaceuticals, Inc., priority 2008, dated 2013)
# What was measured:
# [1] = biological target: CYP3A4 (Homo sapiens, UniProt P08684); assay: Biological Test Example 6: CYP3A4 inhibition (erythromycin N-demethylation); format: in vitro ADME
# [2] = biological target: T1, CYP2C9 (Homo sapiens, UniProt P11712); assay: Biological Test Example 7: CYP2C9 inhibition (naproxen O-demethylation); format: in vitro ADME
# T1 construct: purchased Invitrogen 2859; host or cells: insect cells infected with baculovirus (microsomes)
# T1 sequence (P11712 whole entry): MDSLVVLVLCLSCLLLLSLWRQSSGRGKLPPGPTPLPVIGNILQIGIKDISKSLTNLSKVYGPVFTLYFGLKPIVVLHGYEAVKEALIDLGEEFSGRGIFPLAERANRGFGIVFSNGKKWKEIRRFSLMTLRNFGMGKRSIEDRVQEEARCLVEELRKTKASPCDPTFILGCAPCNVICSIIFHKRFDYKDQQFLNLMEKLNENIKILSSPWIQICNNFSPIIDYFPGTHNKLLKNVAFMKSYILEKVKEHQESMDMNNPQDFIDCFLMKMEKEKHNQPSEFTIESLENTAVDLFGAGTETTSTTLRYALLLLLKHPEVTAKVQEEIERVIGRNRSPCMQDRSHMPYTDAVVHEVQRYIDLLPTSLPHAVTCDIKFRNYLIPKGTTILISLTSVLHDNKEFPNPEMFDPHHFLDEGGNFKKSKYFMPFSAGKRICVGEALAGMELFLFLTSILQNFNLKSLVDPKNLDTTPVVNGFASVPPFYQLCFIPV
# [3] = biological target: CYP2C19 (Homo sapiens, UniProt P33261); assay: Biological Test Example 8: CYP2C19 inhibition (diazepam N-demethylation); format: in vitro ADME
# Sequence of CYP2C19 (P33261 whole entry): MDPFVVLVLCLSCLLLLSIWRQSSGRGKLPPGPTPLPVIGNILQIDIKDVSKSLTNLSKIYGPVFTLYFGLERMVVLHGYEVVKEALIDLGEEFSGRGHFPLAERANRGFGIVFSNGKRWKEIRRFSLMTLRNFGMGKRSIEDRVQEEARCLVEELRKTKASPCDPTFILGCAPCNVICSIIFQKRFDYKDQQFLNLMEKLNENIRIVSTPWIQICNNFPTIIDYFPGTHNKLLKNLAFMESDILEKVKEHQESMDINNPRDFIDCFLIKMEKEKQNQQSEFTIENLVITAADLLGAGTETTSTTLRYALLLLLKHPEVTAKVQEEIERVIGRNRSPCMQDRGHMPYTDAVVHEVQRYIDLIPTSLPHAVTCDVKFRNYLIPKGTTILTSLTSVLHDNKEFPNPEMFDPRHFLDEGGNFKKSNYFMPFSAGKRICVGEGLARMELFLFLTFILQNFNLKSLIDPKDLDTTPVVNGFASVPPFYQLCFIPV
# [4] = biological target: 11β-HSD1 (Homo sapiens, UniProt P28845); assay: biochemical; conditions: for inhibition at 0.1 µM: read-out: Average % inhibition at 100 nM
# Sequence of 11β-HSD1 (P28845 whole entry): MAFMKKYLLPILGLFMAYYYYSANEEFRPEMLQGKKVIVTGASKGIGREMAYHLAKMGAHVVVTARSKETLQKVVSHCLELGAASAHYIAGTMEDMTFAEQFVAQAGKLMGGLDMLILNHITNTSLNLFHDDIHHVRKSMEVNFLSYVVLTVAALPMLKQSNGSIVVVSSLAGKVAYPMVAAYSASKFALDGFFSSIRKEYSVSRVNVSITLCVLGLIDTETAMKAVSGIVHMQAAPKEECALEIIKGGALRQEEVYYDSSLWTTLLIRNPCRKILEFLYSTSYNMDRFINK
# [5] = Biological Test Example 1 IC50 (nM)
# [6] = IC50 Range, Biological Test Example 1
# Sequence of CYP3A4 (P08684 whole entry): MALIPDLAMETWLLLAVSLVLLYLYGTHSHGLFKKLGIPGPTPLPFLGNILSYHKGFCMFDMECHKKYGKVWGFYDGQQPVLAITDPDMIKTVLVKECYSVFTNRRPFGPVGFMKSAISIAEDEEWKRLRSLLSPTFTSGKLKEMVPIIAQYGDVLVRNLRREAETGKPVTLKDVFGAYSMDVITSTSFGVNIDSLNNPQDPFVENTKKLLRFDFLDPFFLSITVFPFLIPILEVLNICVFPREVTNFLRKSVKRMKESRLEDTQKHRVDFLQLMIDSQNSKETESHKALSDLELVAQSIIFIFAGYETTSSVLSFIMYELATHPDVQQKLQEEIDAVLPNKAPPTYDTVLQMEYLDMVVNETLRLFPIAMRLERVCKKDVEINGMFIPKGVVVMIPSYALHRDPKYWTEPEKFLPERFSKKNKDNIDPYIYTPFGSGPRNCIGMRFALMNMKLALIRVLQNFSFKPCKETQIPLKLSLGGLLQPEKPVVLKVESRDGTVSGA
Compound,IC50 [1],IC50 [2],IC50 [3],"IC50 [4, 5]","IC50 [4, 6]",inhibition at 0.1 µM [4]
"C[C@@H](c1ccc(-c2ccc(S(C)(=O)=O)nc2)cc1)N1CC[C@](CC(C)(C)O)(c2ccccc2)OC1=O [EXAMPLE 183, (S)-6-(2-Hydroxy-2-methyl-propyl)-3-{(S)-1-[4-(6-methanesulfonyl-pyridin-3-yl)-phenyl]-ethyl}-6-phenyl-[1,3]oxazinan-2-one]",> 50 µM,45.7 µM,47.4 µM,0.93 nM,< 100 nM,96.4%
"CNC(=O)c1ccc(-c2ccc([C@H](C)N3CC[C@](CC(C)(C)O)(c4ccccc4)OC3=O)cc2)cn1 [EXAMPLE 169, 5-(4-{(S)-1-[(S)-6-(2-Hydroxy-2-methyl-propyl)-2-oxo-6-phenyl-[1,3]oxazinan-3-yl]-ethyl}-phenyl)-pyridine-2-carboxylic acid methylamide]",28.4 µM,45.2 µM,5.9 µM,,,
"C[C@@H](c1ccc(-c2cnc(C3CC3)nc2)cc1)N1CC[C@](CC(C)(C)O)(c2ccccc2)OC1=O [EXAMPLE 192, 3-{(S)-1-[4-(2-Cyclopropyl-pyrimidin-5-yl)-phenyl]-ethyl}-(S)-6-(2-hydroxy-2-methyl-propyl)-6-phenyl-[1,3]oxazinan-2-one]",11.2 µM,10.4 µM,15.5 µM,,,
"C[C@@H](c1ccc(-c2cc([S+](C)[O-])ccn2)cc1)N1CC[C@](CC(C)(C)O)(c2ccccc2)OC1=O (stereo partly drawn) [EXAMPLE 184, (S)-6-(2-Hydroxy-2-methyl-propyl)-3-{(S)-1-[4-(4-methanesulfinyl-pyridin-2-yl)-phenyl]-ethyl}-6-phenyl-[1,3]oxazinan-2-one]",> 50 µM,> 50 µM,> 50 µM,,,
"C[C@@H](c1ccc(-c2cscn2)cc1)N1CC[C@](CC(C)(C)O)(c2ccccc2)OC1=O [EXAMPLE 175, (S)-6-(2-Hydroxy-2-methyl-propyl)-6-phenyl-3-[(S)-1-(4-thiazol-4-yl-phenyl)-ethyl]-[1,3]oxazinan-2-one]",9.7 µM,29.8 µM,1.8 µM,,,
"C[C@@H](c1ccc(-c2cnn(C)c2)cc1)N1CC[C@](CC(C)(C)O)(c2ccccc2)OC1=O [EXAMPLE 178, (S)-6-(2-Hydroxy-2-methyl-propyl)-3-{(S)-1-[4-(1-methyl-1H-pyrazol-4-yl)-phenyl]-ethyl}-6-phenyl-[1,3]oxazinan-2-one]",> 50 µM,21.3 µM,> 50 µM,,,
"C[C@@H](c1ccc(-c2cncc(S(C)(=O)=O)c2)cc1)N1CC[C@](CC(C)(C)O)(c2ccccc2)OC1=O [EXAMPLE 188, (S)-6-(2-Hydroxy-2-methyl-propyl)-3-{(S)-1-[4-(5-methanesulfonyl-pyridin-3-yl)-phenyl]-ethyl}-6-phenyl-[1,3]oxazinan-2-one]",42.4 µM,21.2 µM,> 50 µM,,,
"C[C@@H](c1ccc(-c2cncs2)cc1)N1CC[C@](CC(C)(C)O)(c2ccccc2)OC1=O [EXAMPLE 171, (S)-6-(2-Hydroxy-2-methyl-propyl)-6-phenyl-3-[(S)-1-(4-thiazol-5-yl-phenyl)-ethyl]-[1,3]oxazinan-2-one]",< 0.4 µM,9.2 µM,0.8 µM,,,
"Cc1nc(C)c(-c2ccc([C@H](C)N3CC[C@](CC(C)(C)O)(c4ccccc4)OC3=O)cc2)s1 [EXAMPLE 176, 3-{(S)-1-[4-(2,4-Dimethyl-thiazol-5-yl)-phenyl]-ethyl}-(S)-6-(2-hydroxy-2-methyl-propyl)-6-phenyl-[1,3]oxazinan-2-one]",7.5 µM,6 µM,7.9 µM,,,
"C[C@@H](c1ccc(-c2ccc(S(C)(=O)=O)cn2)cc1)N1CC[C@](CC(C)(C)O)(c2ccccc2)OC1=O [EXAMPLE 186, (S)-6-(2-Hydroxy-2-methyl-propyl)-3-{(S)-1-[4-(5-methanesulfonyl-pyridin-2-yl)-phenyl]-ethyl}-6-phenyl-[1,3]oxazinan-2-one]",> 50 µM,> 50 µM,48.6 µM,0.9 nM,< 100 nM,95.2%
